Where a name gives a salt, the structure may show the parent alone.
Experiments:
BTK = BTK (Homo sapiens, UniProt Q06187); test: Kinase inhibitory activity test (per WO2011/147066); assay type: biochemical; details: result in words
Experimental: (§1) The salt sample obtained from Example 1 was tested according to the kinase inhibitory activity test described in the biological assessment of the patent application WO2011/147066.

ALK = ALK (Homo sapiens, UniProt Q9UM73); test: as above; assay type: biochemical; details: result in words
Experimental: as §1

PDGFRα = PDGFRα (Homo sapiens, UniProt P16234); test: as above; assay type: biochemical; details: result in words
Experimental: as §1

KDR(h) = KDR(h) (Homo sapiens, UniProt P35968); test: as above; assay type: biochemical
Experimental: as §1

Lyn(h) = Lyn(h) (Homo sapiens, UniProt P07948); test: as above; assay type: biochemical
Experimental: as §1

DSC and TGA tests = assay type: physicochemical; details: onset temperature
Experimental: 6. Differential Scanning Calorimetry-Thermogravimetric Analysis (DSC-TGA)
Detection instrument: NETZSCH STA 449F3
Temperature range: 20° C.-350° C.;
Heating rate: 10.0 (K/min);
7. Differential Scanning Calorimetry (DSC)
Detection instrument: NETZSCH DSC 214 Polyma
Temperature range: 20° C.-250° C.;
Heating rate: 5.0 (K/min);
8. Thermogravimetric Analysis (TGA)
Detection instrument: METTLER and SDT Q600
The salts obtained in Examples 1 and 3-17 and the compound represented by Formula 1 were subjected to the DSC and TGA tests in media, and the test results were shown in the following table: […]

[1] = tested on: MV4-11 (FLT3-ITD mutation) subcutaneous tumor model; test: In-vivo anti-tumor test, MV4-11 subcutaneous tumor model; set-up: species or system nude mice; details: MV4-11 model, once daily oral administration for 21 days
Experimental: (§2) The salt sample obtained from Example 1 was tested (specifically for FLT3-ITD acute myeloid leukemia, non-small cell lung cancer with EGFR activating mutations, or Ph-positive chronic myeloid leukemia) according to the in-vivo anti-tumor test described in the biological assessment of the patent application WO2011/147066.

Hygroscopicity test = assay type: physicochemical; details: 25±1° C., relative humidity 80%±2% (DVS, 80% RH)
Experimental: Detection instrument: XPE105DR
(1) A dry stoppered glass weighing bottle was taken, placed in a suitable constant-temperature desiccator at 25° C. 1° C. (with a saturated solution of ammonium chloride or ammonium sulfate in the lower part) or an artificial climate box (with the set temperature of 25° C.±1° C. and the relative humidity of 80%±2%) on the day before the test, and precisely weighed and recorded as the weight (m1).
(2) An appropriate amount of the test sample was taken and spread in the above-mentioned weighing bottle. The thickness of the test sample was generally about 1 mm, and the bottle was precisely weighed and recorded as the weight (m2).
(3) The stopper was removed to open the weighing bottle, and the opened weighing bottle and the stopper were placed under the above-mentioned constant temperature and humidity conditions for 24 hours.
(4) The opened weighing bottle was stoppered, precisely weighed, and recorded as the weight (m3).
Percentage increase in mass=(m3−m2)/(m2−m1)×100%
(5) The description of hygroscopicity characteristics and the definition for the weight gain due to hygroscopicity:
Deliquescence: Sufficient water was absorbed to form a liquid.
Very hygroscopic: the weight gain due to hygroscopicity was not less than 15%.
Hygroscopic: the weight gain due to hygroscopicity was less than 15% but not less than 2%.
Slightly hygroscopic: the weight gain due to hygroscopicity was less than 2% but not less than 0.2%.
Not or nearly not hygroscopic: the weight gain due to hygroscopicity was less than 0.2%.
Appropriate amounts of the salt samples obtained from Examples 1 and 3-17 were subjected to the hygroscopicity test at a temperature of 25±1° C. under a relative humidity of 80%±2%, and the results were as follows: […]

[2] = Solubility test (UV spectrophotometer, saturated solutions shaken 24 hours); assay type: physicochemical; details: 25° C.
Experimental: Detection instrument: Ultraviolet spectrophotometer/Evolution 300
The following solutions with pH=1.2, pH=4.5, and pH=6.8 and water were used as the solvent, and the solvent preparation process was as follows:
(1) pH=1.2 hydrochloric acid solution: To 7.65 mL of hydrochloric acid was added 1000 mL of water, and the mixture was shaken uniformly to obtain the target solution.
(2) pH=4.5 phosphate buffer solution: 6.8 g of potassium dihydrogen phosphate was taken and diluted with water to 1000 mL, and the mixture was shaken uniformly to obtain the target solution.
(2) pH=6.8 phosphate buffer solution: 6.8 g of potassium dihydrogen phosphate and 0.896 g of sodium hydroxide were taken and diluted with water to 1000 mL, and the mixture was shaken uniformly to obtain the target solution.
(4) Water: purified water
Test tubes with stopper were taken, and 10 mL of dissolution media at various pH values were precisely added to the test tubes respectively, and excessive stock drugs were added until supersaturated solutions were formed. The adding amounts were recorded. The solutions were shaken uniformly, sealed with stoppers, and shaken for 24 hours in a shaker. 2 mL of solutions were taken out at different time points respectively, and centrifuged. The resulting supernatants were taken, filtered, and the subsequent filtrates were taken for later use.
The above-mentioned saturated solutions in different solvents were taken, and solvents were added to dilute the solutions to certain volumes. The absorbances were measured at a wavelength of 287 nm.
Preparation of a solution of the reference substance: an appropriate amount of the compound represented by Formula 1 was taken as the reference substance, and precisely weighed. A solvent was added to dissolve and dilute the reference compound to produce a solution containing about 10 μg of the compound represented by Formula 1 per 1 mL. The absorbance was measured at a wavelength of 287 nm to calculate the solubility.
The salts obtained in Examples 1 and 3-17 and the compound represented by Formula 1 were subjected to the solubility test in media and the test results were shown in the following table: […]

[3] = tested on: K562 (BCR-Abl gene rearrangement) subcutaneous tumor model; test: In-vivo anti-tumor test, K562 subcutaneous tumor model; set-up: species or system nude mice; details: 70 mg/kg, once daily oral administration for 18 days
Experimental: as §2

ALK, sequence (Q9UM73 19-1620): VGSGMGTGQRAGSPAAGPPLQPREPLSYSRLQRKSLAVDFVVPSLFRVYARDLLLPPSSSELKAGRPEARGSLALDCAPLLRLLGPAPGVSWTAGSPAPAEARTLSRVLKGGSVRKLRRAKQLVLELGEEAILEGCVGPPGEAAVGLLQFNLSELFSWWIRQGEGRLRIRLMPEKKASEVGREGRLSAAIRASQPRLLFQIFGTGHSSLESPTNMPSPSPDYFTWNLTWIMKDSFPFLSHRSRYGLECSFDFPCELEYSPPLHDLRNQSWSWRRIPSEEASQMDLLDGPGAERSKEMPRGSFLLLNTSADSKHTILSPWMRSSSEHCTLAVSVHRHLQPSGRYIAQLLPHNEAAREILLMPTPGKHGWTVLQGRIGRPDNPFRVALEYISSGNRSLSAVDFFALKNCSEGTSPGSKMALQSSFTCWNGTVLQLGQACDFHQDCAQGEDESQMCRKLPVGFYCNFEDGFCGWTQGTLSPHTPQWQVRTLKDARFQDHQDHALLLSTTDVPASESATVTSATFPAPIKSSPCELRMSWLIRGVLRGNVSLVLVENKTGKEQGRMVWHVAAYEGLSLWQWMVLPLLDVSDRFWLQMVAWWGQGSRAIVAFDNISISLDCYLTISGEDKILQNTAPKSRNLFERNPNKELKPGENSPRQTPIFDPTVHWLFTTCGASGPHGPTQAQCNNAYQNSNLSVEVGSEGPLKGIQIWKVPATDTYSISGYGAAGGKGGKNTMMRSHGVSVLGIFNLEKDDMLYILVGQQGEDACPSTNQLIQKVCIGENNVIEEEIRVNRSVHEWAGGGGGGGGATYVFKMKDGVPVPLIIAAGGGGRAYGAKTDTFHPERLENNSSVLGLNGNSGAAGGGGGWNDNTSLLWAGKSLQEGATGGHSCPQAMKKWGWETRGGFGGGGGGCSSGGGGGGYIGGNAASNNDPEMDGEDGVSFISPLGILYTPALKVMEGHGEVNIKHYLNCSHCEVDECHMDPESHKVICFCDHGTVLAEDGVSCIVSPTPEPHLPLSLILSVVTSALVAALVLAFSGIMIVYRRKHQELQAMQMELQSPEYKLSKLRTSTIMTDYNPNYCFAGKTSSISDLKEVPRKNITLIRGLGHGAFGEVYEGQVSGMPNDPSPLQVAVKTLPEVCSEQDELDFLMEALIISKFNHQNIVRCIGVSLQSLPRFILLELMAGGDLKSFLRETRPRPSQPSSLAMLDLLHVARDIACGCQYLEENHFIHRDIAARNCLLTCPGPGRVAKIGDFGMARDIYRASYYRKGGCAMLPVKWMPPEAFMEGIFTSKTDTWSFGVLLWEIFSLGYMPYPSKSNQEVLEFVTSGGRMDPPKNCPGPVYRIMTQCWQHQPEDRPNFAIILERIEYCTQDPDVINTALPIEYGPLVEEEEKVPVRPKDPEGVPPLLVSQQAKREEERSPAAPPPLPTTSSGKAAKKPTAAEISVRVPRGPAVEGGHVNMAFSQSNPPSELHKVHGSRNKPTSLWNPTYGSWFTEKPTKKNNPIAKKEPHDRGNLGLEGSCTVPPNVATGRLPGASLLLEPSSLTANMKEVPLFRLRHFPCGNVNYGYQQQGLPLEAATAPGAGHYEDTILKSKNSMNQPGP
BTK, sequence (Q06187 whole entry): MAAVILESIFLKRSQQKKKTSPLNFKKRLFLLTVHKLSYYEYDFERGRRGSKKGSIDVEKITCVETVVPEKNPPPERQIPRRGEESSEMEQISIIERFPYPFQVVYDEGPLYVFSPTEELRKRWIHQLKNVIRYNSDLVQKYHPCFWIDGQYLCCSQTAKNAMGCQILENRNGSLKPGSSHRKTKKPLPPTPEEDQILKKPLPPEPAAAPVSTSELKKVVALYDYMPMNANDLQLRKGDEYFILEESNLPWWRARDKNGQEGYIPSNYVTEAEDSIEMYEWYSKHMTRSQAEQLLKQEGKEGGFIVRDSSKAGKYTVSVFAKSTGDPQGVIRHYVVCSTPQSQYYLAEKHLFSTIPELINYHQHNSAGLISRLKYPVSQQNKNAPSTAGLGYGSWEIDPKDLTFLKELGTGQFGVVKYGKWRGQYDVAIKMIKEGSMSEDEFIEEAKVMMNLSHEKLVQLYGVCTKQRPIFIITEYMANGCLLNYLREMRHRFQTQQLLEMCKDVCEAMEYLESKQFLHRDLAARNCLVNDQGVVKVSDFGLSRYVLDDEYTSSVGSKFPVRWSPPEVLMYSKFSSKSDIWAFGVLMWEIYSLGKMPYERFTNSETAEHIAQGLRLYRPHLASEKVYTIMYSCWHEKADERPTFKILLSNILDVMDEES
KDR(h), sequence (P35968 20-1356): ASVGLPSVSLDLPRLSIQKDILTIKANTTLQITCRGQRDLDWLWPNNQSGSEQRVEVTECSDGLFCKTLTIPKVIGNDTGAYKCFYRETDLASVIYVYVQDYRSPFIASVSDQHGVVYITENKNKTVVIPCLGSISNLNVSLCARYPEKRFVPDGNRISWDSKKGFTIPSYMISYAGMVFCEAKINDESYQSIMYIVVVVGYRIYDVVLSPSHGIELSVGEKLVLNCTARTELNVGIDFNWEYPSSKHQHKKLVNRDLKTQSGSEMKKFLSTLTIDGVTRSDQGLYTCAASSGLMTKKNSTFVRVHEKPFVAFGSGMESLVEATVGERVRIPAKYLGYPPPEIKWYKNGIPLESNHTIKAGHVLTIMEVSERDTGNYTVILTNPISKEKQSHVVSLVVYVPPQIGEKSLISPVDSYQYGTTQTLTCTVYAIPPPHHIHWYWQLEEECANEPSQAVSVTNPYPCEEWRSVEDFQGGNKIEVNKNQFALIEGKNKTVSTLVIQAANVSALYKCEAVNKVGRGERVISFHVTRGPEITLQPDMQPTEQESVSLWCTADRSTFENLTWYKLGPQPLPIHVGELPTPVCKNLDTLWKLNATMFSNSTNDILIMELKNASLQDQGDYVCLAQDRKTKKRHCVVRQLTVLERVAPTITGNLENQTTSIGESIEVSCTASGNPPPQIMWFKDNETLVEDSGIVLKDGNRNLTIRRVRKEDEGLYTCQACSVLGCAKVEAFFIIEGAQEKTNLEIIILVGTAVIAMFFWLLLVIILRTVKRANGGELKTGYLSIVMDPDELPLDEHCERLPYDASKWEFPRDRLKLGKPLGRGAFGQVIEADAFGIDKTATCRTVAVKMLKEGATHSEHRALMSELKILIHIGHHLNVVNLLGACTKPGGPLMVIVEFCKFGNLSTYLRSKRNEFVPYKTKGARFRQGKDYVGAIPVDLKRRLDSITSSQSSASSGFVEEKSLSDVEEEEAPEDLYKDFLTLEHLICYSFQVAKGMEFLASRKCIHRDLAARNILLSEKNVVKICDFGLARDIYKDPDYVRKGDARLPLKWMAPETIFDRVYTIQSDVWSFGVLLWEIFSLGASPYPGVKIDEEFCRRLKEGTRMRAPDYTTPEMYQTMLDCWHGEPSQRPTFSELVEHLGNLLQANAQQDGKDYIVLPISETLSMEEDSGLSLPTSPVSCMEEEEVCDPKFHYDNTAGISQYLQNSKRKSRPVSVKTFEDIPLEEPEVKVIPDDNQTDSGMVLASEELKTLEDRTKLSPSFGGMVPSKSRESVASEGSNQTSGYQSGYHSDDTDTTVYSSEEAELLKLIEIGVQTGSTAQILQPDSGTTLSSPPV
PDGFRα, sequence (P16234 24-1089): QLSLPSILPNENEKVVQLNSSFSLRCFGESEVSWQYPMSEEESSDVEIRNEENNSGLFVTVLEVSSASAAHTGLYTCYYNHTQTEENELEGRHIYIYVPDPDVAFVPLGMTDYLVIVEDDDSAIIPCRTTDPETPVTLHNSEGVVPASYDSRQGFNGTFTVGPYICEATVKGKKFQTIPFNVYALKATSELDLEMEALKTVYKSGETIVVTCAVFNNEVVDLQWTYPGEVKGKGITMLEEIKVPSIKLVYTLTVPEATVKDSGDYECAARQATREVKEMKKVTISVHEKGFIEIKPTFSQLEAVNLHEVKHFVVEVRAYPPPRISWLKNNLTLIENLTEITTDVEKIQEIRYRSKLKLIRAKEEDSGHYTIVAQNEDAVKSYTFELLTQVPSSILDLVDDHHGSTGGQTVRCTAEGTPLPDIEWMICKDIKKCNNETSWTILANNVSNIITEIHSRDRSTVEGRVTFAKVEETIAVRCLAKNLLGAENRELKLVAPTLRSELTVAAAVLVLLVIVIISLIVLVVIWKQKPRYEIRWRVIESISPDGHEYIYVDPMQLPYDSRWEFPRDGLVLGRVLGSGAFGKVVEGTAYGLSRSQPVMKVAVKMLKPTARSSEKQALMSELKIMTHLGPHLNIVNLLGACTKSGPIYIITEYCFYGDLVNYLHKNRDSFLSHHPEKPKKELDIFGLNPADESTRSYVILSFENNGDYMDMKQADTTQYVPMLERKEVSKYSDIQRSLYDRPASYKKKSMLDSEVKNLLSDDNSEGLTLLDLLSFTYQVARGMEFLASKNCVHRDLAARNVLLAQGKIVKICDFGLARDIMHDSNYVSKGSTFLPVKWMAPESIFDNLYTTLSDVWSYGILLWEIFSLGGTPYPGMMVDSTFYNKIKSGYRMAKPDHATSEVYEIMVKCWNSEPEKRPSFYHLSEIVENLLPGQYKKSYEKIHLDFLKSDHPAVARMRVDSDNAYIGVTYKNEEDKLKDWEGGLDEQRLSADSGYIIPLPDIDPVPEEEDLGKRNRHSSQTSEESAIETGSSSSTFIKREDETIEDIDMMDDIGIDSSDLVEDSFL

CC(C)n1c(Nc2cccnc2)nc2cnc(Nc3ccc(N4CCN(C)CC4)cc3)nc21 [Example 1, arylaminopurine derivative.trihydrochloride.pentahydrate]
inhibition of kinase activity (BTK): could inhibit the activities
inhibition of kinase activity (ALK): could inhibit the activities
inhibition of kinase activity (PDGFRα): could inhibit the activities
IC50 (KDR(h)): 323 nM
IC50 (Lyn(h)): 7 nM
TGA: starting to lose the acid (DSC and TGA tests): ~140 °C (see FIG. 19)
TGA: starting to lose the water of crystallization (DSC and TGA tests): crystallization at about 40° C.;
tumor growth ([1]; 5 mg/kg): completely inhibit the tumor growth
tumor growth ([1]; 10 mg/kg): complete regression of the tumor
tumor growth ([1]; 20 mg/kg): complete regression of the tumor
Hygroscopicity (Hygroscopicity test): Slightly hygroscopic (the weight gain due to hygroscopicity was less than 2% but not less than 0.2%.)
Weight gain due to hygroscopicity (Hygroscopicity test): 0.7%
Solubility, Water medium pH = 1.2 ([2]; pH=1.2 hydrochloric acid solution): 33.89 mg/mL
Solubility, Water medium pH = 4.5 ([2]; pH=4.5 phosphate buffer solution): 47.27 mg/mL
Solubility, Water medium pH = 6.8 ([2]; pH=6.8 phosphate buffer solution): 50.62 mg/mL
Solubility, Water medium ([2]; water (purified water)): 40.41 mg/mL
tumor growth [3]: effectively inhibit the tumor growth
tumor inhibition rate [3]: 71.3%

— US20230144619A1, “SALT OF ARYLAMINOPURINE DERIVATIVE, PREPARATION METHOD THEREFOR AND USE THEREOF” (CSPC Zhongqi Pharmaceutical Technology (Shijiazhuang) Co., …, priority 2020, published 2023)
